Columns and labels:
[1] = target: T1, epithelial sodium channels (ENaC), airway epithelial monolayers (Canis lupus familiaris, UniProt A0A8I3MKE6+A0A8I3Q679+Q95165); assay: Sodium channel blocking activity: lumenal drug inhibition of airway epithelial sodium currents (short circuit current, ISC) in Ussing chambers; assay type: cell-based, canine; details: for Fold Amiloride** (PSA 4022 = 100): relative potency for PSA 4022 = 100 using EC50 from PSA 4022 in same run
T1 sequence (A0A8I3Q679 1-649): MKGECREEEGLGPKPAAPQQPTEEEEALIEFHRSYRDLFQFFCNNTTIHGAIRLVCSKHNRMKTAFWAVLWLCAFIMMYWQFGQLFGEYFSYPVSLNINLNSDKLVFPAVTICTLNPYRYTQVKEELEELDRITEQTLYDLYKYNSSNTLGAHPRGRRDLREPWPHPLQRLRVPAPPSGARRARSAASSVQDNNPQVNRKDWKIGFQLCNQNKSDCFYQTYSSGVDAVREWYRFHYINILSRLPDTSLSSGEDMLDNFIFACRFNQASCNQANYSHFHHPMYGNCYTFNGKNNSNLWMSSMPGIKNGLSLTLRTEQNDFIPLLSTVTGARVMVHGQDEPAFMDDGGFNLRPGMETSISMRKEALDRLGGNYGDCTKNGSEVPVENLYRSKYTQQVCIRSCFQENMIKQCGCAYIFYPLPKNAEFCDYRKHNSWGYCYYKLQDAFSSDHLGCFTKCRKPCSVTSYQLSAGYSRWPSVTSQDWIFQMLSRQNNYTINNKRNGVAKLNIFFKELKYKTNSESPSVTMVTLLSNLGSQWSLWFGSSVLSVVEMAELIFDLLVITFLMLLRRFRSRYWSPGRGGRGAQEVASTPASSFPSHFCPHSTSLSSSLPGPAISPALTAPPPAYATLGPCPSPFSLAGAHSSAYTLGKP
T1 sequence (Q95165 1-641): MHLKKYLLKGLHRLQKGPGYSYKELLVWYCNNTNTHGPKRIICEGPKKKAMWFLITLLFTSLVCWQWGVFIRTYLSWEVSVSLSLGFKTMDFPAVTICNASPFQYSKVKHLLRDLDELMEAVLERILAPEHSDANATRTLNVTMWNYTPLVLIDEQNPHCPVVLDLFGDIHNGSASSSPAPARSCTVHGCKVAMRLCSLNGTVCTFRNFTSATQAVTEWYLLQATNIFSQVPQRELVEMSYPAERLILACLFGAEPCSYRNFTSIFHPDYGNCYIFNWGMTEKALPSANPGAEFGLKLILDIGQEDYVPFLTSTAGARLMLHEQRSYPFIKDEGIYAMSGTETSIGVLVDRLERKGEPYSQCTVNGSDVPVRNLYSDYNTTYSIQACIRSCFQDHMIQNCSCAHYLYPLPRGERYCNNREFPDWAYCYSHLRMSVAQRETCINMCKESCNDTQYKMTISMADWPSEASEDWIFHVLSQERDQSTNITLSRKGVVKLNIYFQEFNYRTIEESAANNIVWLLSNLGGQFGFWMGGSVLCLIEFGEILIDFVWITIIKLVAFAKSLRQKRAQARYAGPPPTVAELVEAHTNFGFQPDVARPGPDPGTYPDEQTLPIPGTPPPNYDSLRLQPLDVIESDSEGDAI
T1 sequence (A0A8I3MKE6 1-646): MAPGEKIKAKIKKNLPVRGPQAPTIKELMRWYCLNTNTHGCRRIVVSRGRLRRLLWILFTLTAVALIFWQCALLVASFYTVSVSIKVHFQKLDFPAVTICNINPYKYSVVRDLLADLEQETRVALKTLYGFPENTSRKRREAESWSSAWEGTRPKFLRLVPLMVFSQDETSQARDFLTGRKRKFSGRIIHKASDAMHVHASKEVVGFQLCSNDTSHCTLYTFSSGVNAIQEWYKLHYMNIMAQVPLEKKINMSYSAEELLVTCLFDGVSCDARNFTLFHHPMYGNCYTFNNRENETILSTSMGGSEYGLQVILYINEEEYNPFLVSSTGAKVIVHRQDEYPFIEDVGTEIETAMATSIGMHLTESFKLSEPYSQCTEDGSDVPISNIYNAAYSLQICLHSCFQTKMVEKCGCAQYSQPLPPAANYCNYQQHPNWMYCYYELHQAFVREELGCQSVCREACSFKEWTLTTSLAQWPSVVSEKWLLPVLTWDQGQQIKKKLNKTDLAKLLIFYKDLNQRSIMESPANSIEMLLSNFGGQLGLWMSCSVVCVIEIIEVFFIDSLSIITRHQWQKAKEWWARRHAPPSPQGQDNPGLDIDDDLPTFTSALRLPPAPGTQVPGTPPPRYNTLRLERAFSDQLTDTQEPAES
Experimental: One assay used to assess mechanism of action and/or potency of the compounds of the present invention involves the determination of lumenal drug inhibition of airway epithelial sodium currents measured under short circuit current (ISC) using airway epithelial monolayers mounted in Ussing chambers. Cells obtained from freshly excised human, dog, sheep or rodent airways are seeded onto porous 0.4 micron Snapwell™ Inserts (CoStar), cultured at air-liquid interface (ALI) conditions in hormonally defined media, and assayed for sodium transport activity (ISC) while bathed in Krebs Bicarbonate Ringer (KBR) in Using chambers. All test drug additions are to the lumenal bath with half-log dose addition protocols (from 1×10^−11 M to 3×10^−5 M), and the cumulative change in ISC (inhibition) recorded. All drugs are prepared in dimethyl sulfoxide as stock solutions at a concentration of 1×10^−2 M and stored at −20° C. Eight preparations are typically run in parallel; two preparations per run incorporate amiloride and/or benzamil as positive controls. After the maximal concentration (5×10^−5 M) is administered, the lumenal bath is exchanged three times with fresh drug-free KBR solution, and the resultant ISC measured after each wash for approximately 5 minutes in duration. Reversibility is defined as the percent return to the baseline value for sodium current after the third wash. All data from the voltage clamps are collected via a computer interface and analyzed off-line.
Dose-effect relationships for all compounds are considered and analyzed by the Prism 3.0 program. IC50 values, maximal effective concentrations, and reversibility are calculated and compared to amiloride and benzamil as positive controls.
Treatment Protocol (Assessment of Activity at t-4 hours): The following variation of the standard protocol was used to assess the durability of response following a single exposure to vehicle control (distilled water), positive control compounds (amiloride or benzamil), or investigational agents. At time zero, vehicle control (distilled water), positive control (amiloride), or investigational compounds were aerosolized from a 4 ml volume using a Pari LC JetPlus nebulizer to free-breathing animals. The nebulizer was driven by compressed air with a flow of 8 liters per minute. The time to deliver the solution was 10 to 12 minutes. Animals were restrained in an upright position in a specialized body harness for 4 hours. At the end of the 4-hour period animals received a single dose of aerosolized ^99mTc-Human serum albumin (3.1 mg/ml; containing approximately 20 mCi) from a Raindrop Nebulizer. Animals were extubated immediately following delivery of the total dose of radio-tracer. A baseline deposition image was obtained immediately after radio-aerosol administration. Serial images of the lung were obtained at 15-minute intervals during the first 2 hours after administration of the radio-tracer (representing hours 4 through 6 after drug administration) and hourly for the next 2 hours after dosing for a total observation period of 4 hours. A washout period of at least 7 days separated dosing sessions with different experimental agents. Statistics: Data were analyzed using SYSTAT for Windows, version 5. Data were analyzed using a two-way repeated ANOVA (to assess overall effects), followed by a paried t-test to identify differences between specific pairs. Significance was accepted when P was less than or equal to 0.05. […] The compounds can be further tested for potency in canine bronchial epithelia using the in vitro assay described above. The results for the compounds of the present invention are reported as fold-enhancement values relative to amiloride.
Sodium Channel Blocking Activity of Selected Alaphatic Pyrazinoylguanidines.

CC(C)(C)OC(=O)NCCCCCCCCCNC(=N)NC(=O)c1nc(Cl)c(N)nc1N [compound 19484]
Fold Amiloride** (PSA 4022 = 100) [1]: 12 (n = 1)

CC(C)(C)OC(=O)NCCCOCCCNC(=N)NC(=O)c1nc(Cl)c(N)nc1N [compound 19333]
Fold Amiloride** (PSA 4022 = 100) [1]: 7 ± 2 (n = 4)

N=C(NCCCCCCCCCCCN)NC(=O)c1nc(Cl)c(N)nc1N [compound 23682]
Fold Amiloride** (PSA 4022 = 100) [1]: 51 ± 15 (n = 3)

CC(C)(C)OC(=O)N=C(NCCCOCCCNC(=N)NC(=O)c1nc(Cl)c(N)nc1N)NC(=O)OC(C)(C)C
melting point: 89 to 93 °C

N=C(N)NCCCCCCCNC(=N)NC(=O)c1nc(Cl)c(N)nc1N [compound 19155]
Fold Amiloride** (PSA 4022 = 100) [1]: 8 ± 7 (n = 3)

N=C(N)NCCCCCCCCNC(=N)NC(=O)c1nc(Cl)c(N)nc1N [compound 19604]
Fold Amiloride** (PSA 4022 = 100) [1]: 63 ± 61 (n = 4)

N=C(N)NCCCCCCCCCCNC(=N)NC(=O)c1nc(Cl)c(N)nc1N [compound 23608]
Fold Amiloride** (PSA 4022 = 100) [1]: 41 ± 29 (n = 2)

N=C(NCCCCCCCCCCCCN)NC(=O)c1nc(Cl)c(N)nc1N [compound 23609]
Fold Amiloride** (PSA 4022 = 100) [1]: 66 ± 36 (n = 4)

N=C(NCCCCCCCCCCN)NC(=O)c1nc(Cl)c(N)nc1N [compound 19487]
Fold Amiloride** (PSA 4022 = 100) [1]: 37 ± 1 (n = 4)

N=C(NCCCCCCCCN)NC(=O)c1nc(Cl)c(N)nc1N [compound 19336]
Fold Amiloride** (PSA 4022 = 100) [1]: 12 ± 3 (n = 3)

N=C(N)NCCCCCCCCCCCCNC(=N)NC(=O)c1nc(Cl)c(N)nc1N [compound 23683]
Fold Amiloride** (PSA 4022 = 100) [1]: 68 ± 48 (n = 6)

N=C(NCCCCCCN)NC(=O)c1nc(Cl)c(N)nc1N [compound 18706]
Fold Amiloride** (PSA 4022 = 100) [1]: 4 ± 1 (n = 4)

CC(C)(C)OC(=O)NCCCCCCCCNC(=N)NC(=O)c1nc(Cl)c(N)nc1N [compound 19156]
Fold Amiloride** (PSA 4022 = 100) [1]: 18 ± 2 (n = 2)

CC(C)(C)OC(=O)NCCCCCCCCCCCCNC(=N)NC(=O)c1nc(Cl)c(N)nc1N [compound 23776]
Fold Amiloride** (PSA 4022 = 100) [1]: 7 (n = 1)

N=C(N)NCCCCCCCCCCCNC(=N)NC(=O)c1nc(Cl)c(N)nc1N [compound 23991]
Fold Amiloride** (PSA 4022 = 100) [1]: 20 ± 12 (n = 4)

N=C(NCCCCCCCCCN)NC(=O)c1nc(Cl)c(N)nc1N [compound 19335]
Fold Amiloride** (PSA 4022 = 100) [1]: 19 ± 7 (n = 4)
EC50 ([1]; sodium channel blocking activity, short circuit current in airway epithelial monolayers): 36 ± 7 nM

N=C(N)NCCCCCCCCCNC(=N)NC(=O)c1nc(Cl)c(N)nc1N [compound 19006]
Fold Amiloride** (PSA 4022 = 100) [1]: 11 ± 2 (n = 3)

N=C(NCCCCCCCN)NC(=O)c1nc(Cl)c(N)nc1N [compound 18705]
Fold Amiloride** (PSA 4022 = 100) [1]: 8 ± 2 (n = 4)

From patent US7375107B2 (priority 2003, dated 2008)
